Source: PMC11638965, “Leveraging Dual-Ligase Recruitment to Enhance Protein Degradation via a Heterotrivalent Proteolysis Targeting Chimera” (Journal of the American Chemical Society, 2024)

Target: T1, VHL (Homo sapiens, UniProt P40337)
T1 construct: host or cells: HEK293, transient
Assay: Western blot dose-response degradation in HEK293 cells
Assay type: cell-based
Conditions: 1 μM to 100 pM, 6 h
Outline: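 HEK293 cells treated 6 h at 37 °C with compound over 1 μM to 100 pM alongside vehicle control; lysates in RIPA immunoblotted with target antibodies, tubulin as loading control, fluorescent detection. Band intensities fitted by linear regression to give pDC50; SD for two independent repeats, SEM for three.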

T1 sequence (P40337 whole entry): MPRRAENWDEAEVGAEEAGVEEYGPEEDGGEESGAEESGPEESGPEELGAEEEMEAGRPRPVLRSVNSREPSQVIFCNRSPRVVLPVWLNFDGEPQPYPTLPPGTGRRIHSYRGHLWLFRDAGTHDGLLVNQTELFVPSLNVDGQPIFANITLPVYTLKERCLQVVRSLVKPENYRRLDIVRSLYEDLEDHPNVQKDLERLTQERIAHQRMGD

VHL degradation (in words): no observed degradation of VHL
SMILES: Cc1ncsc1-c1ccc(CNC(=O)[C@@H]2C[C@@H](O)CN2C(=O)[C@@H](NC(=O)COCC(COCCOCCOCCNc2cc3c(cc2F)C(=O)N(C2CCC(=O)NC2=O)C3=O)(COCCOCCOCCOC(=O)C[C@@H]2N=C(c3ccc(Cl)cc3)c3c(sc(C)c3C)-n3c(C)nnc32)COCCOCCOCCOC(=O)C[C@@H]2N=C(c3ccc(Cl)cc3)c3c(sc(C)c3C)-n3c(C)nnc32)C(C)(C)C)cc1 (mixture of isomers) [AB3124 (86)]
